Assay results as given in patent US5536645A, “Nutritive medium for the culture of microorganism” (priority 1993, dated 1996).
Like-named read-outs stand apart in the source and are kept apart here. Ends that are not written are not given here.

Columns and labels:
Format in all cases: cell-based
[1] = tested on: enterococci and streptococci of group B; assay: Effect of lipoic acid on growth (FIG. 6); conditions: 0.01 mg/l in FIG. 6
Source text: FIG. 6 illustrates the effect of lipoic acid on the growth of Enterococcus faecalis.

[2] = tested on: Serratia marcescens; assay: Effect of serine concentration on growth (FIG. 1); conditions: serine concentration increased by a factor of 10 in IST medium
Source text: Curve b represents the growth with the IST medium for a concentration of serine increased by a factor of 10. Curve c represents the growth obtained with the Mueller-Hinton medium.
The qualitative and quantitative composition of amino acids was then optimized for the different species in order to obtain growth in conformity with that obtained with the reference Mueller-Hinton medium. […] The final concentrations of amino acids were defined, after having verified their importance on the final biomass, taking account of the biomass obtained in Mueller-Hinton medium.

[3] = tested on: staphylococci; assay: Effect of ethyl oxaloacetate on growth (FIG. 8); conditions: 5 mg/l in FIG. 8
Source text: Ethyl oxaloacetate is described for its stimulatory effect on the growth of numerous species (Pelczar M. J. and Brown J. H. (1951) Synthetic culture media for reference use in dairy bacteriology, J. Milk Food Technol., 14: 90-91 and 97).

[4] = tested on: non-saccharolytic species, such as Alcaligenes faecalis and Pseudomonas acidovorans; assay: Effect of L-malic acid on growth (FIG. 10); conditions: 500 mg/l in FIG. 10
Experimental: (§1) The carbon sources of the medium of the invention are mainly represented by a sugar, preferably D-glucose, and an organic acid, in particular L-malic acid. D-glucose has been retained, taking account of its utilization by a large number of bacterial species with fermentative or non-fermentative metabolism (Stanier R. Y. et al. (1966) The aerobic Pseudomonas: a taxonomic study. J. Gen. Microbiol. 43: 159-271). Its concentration in the medium of the invention was determined to obtain a biomass close to that obtained with the reference Mueller-Hinton medium. […] The respective concentrations of D-glucose and L-malic acid were determined to correspond to the qualities of Mueller-Hinton.

[5] = tested on: Pseudomonas aeruginosa; assay: Effect of L-malic acid on growth (FIG. 11); conditions: 500 mg/l in FIG. 11
Experimental: FIGS. 11 illustrates the effect of L-malic acid on the growth of Pseudomonas aeruginosa, curve a corresponding to the growth obtained with an IST medium devoid of L-malic acid and curve b after addition of a concentration of 500 mg/l of L-malic acid.
as §1

[6] = tested on: enterococci; assay: Effect of medium constituents and peptides on growth of enterococci; conditions: for base requirements of the enterococci: supplied as precursors; for growth: addition of peptides to the medium
Source text: It is moreover known to affect the activity of the sulfamides and trimethoprim family (Then R. et al., Mecanisme moleculaire de la bactericidie; sulfamides et trimethoprime [Molecular mechanism of bactericidal activity; sulfamides and trimethoprim]. Bactericidie 1990, Editions Maloine, Paris).
The purine and pyrimidine bases can be supplied in several forms, that is to say in the form of precursors, of free bases, of nucleosides or of nucleotides. […] The proportions between purines and pyrimidines were defined in relation to those described for the synthesis of RNA by Neidhart (Neidhart et al. (1990) Physiology of the bacterial cell. A molecular approach. Sinauer associates, inc. U.S.A.), taking account of the absence of thymidine, that is to say purines/pyrimidines in a ratio of between 1.5 and 2.2 and advantageously of 1.8. The final concentrations were then optimized essentially to satisfy the growth of the staphylococci and of the enterococci.

[7] = tested on: Enterococcus hirae and Enterococcus faecium; assay: Effect of tetrapeptide on growth (FIG. 14); conditions: 50 or 100 mg/l of peptide in FIG. 14
Experimental: Curve a corresponds to the results obtained with the medium of the invention without addition of the abovementioned peptide, nor addition of constituent free amino acids of this peptide. Curve b illustrates the results obtained with the addition of amino acids Ala, Gly, Ser, GLu respectively at concentrations of 11, 9, 12.5 and 17.5 mg/l. […] Curve d corresponds to the bacterial growth obtained after addition to the medium of 50 mg/l of the peptide. Curve e illustrates the results obtained after addition of 100 mg/l of the same peptide.
Among the peptides tested, only those showing size a less than or equal to 15 amino acids cause a strong increase in the growth.

[8] = tested on: Proteus, Morganella, Providencia and Serratia; assay: Effect of polyamines on growth; conditions: preferential concentration 0.75 mg/l
Experimental: The polyamines are present in the eukaryotic and prokaryotic cells and participate in numerous biological reactions including the synthesis of nucleic acids and of proteins (see Tabor C. W. and Tabor H. (1985) Polyamines in Microorganisms, Microbiol. Rev. 49: 81-99). Putrescine, spermine and spermidine were tested. […] FIG. 7 illustrates the effect of spermidine on the growth of Proteus mirabilis.

[9] = tested on: S. marcescens; assay: Equivalent MIC of antibiotics in VITEK cards, gram-negative bacteria (Table 3); conditions: for MIC: Serratia marcescens, 12 h
Experimental: (§2) With the determination of the sensitivity to antibiotics in mind, a suspension of 0.5 MF (Mac Farland) in physiological water was prepared from bacterial colonies selected in Petri dishes, reading being carried out on an ATB 1550 densitometer marketed by BIOMERIEUX (ATB trade mark). The suspension obtained was respectively diluted to 1/100th in the medium of the invention and Mueller-Hinton medium. VITEK cards (VITEK trade mark) containing different antibiotics at 10 concentrations were filled in vacuo into a VITEK apparatus marketed by BIOMERIEUX-VITEK. The cards were incubated for 12 hours in a VITEK incubator/reader marketed by BIOMERIEUX-VITEK. The growth kinetics were visualized and interpreted and an equivalent MIC was determined (equivalent MIC: equivalent minimum inhibitory concentration, that is to say the smallest concentration for which no bacterial growth is detected by the apparatus).
(§3) IST refers to the medium of the invention and MH signifies Mueller-Hinton medium.
(§4) S, I and R respectively signify "sensitive", "intermediate" and "resistant" with reference to the critical concentrations defined by the NCCLS (National Committee for Clinical Laboratory Standards).

[10] = tested on: P. aeruginosa; assay: as above; conditions: for MIC: Pseudomonas aeruginosa
Experimental: as §2, §3, §4

[11] = tested on: E. coli; assay: microbe, parasite or virus in culture; conditions: for MIC: Escherichia coli, 12 h, read-out: Equivalent MIC
Experimental: as §2, §3, §4

O=C(O)CCCCC1CCSS1 (stereo not drawn) [lipoic acid]
growth [1]: allowing the growth of the enterococci and of the streptococci of group B to be increased to a maximum

N[C@@H](CO)C(=O)O [serine]
bacterial growth [2]: near to that obtained with Mueller-Hinton medium

ethyl oxaloacetate
growth [3]: allowing the growth of the staphylococci to be increased without inhibiting that of the other species

O=C(O)C[C@H](O)C(=O)O [L-malic acid]
growth [4]: necessary for the growth of the non-saccharolytic species
growth [5]: increases the growth of Pseudomonas aeruginosa

O=c1[nH]cnc2nc[nH]c12 [hypoxanthine]
base requirements of the enterococci [6]: does not satisfy the base requirements of the enterococci

ASDAKAYDTEV
growth [6]: interesting results for other strains of Enterococci

Nc1nc2ncc(CNc3ccc(C(=O)N[C@@H](CCC(=O)O)C(=O)O)cc3)nc2c(=O)[nH]1 [Folic acid, folic acid]
importance for the growth of enterococci ([6]; E. faecalis, E. faecium and E. hirae, 0.005 mg/l in FIG. 5): importance for the growth of enterococci

Ala-Gly-Ser-Glu (AGSE) [Ala-Gly-Ser-Glu (SEQ ID NO: 1)]
growth [7]: considerable increase in the growth

O=c1cc[nH]c(=O)[nH]1 [uracil]
base requirements of the enterococci [6]: does not satisfy the base requirements of the enterococci

NCCCCNCCCN [Spermidine, spermidine]
growth [8]: chosen according to the results, especially for the growth of Proteus, Morganella, Providencia and Serratia

CC(C)(O/N=C(\C(=O)N[C@@H]1C(=O)N2C(C(=O)[O-])=C(C[n+]3ccccc3)CS[C@H]12)c1csc(N)n1)C(=O)O [ceftazidim]
NCCLS Category ([9]; CDC 2102, IST medium): S
NCCLS Category ([9]; CDC 2102, MH medium): S
NCCLS Category ([9]; CDC 2162, IST medium): S
NCCLS Category ([9]; CDC 2162, MH medium): S
NCCLS Category ([9]; CDC 2240, IST medium): S
NCCLS Category ([9]; CDC 2240, MH medium): S
MIC ([9]; read-out: Equivalent MIC, CDC 2102, IST medium): 0.5 mg/L
MIC ([9]; read-out: Equivalent MIC, CDC 2102, MH medium): 0.25 mg/L
MIC ([9]; read-out: Equivalent MIC, CDC 2162, IST medium): 2 mg/L
MIC ([9]; read-out: Equivalent MIC, CDC 2162, MH medium): 2 mg/L
MIC ([9]; read-out: Equivalent MIC, CDC 2240, IST medium): 0.5 to 1 mg/L
MIC ([9]; read-out: Equivalent MIC, CDC 2240, MH medium): 1 mg/L
NCCLS Category ([10]; AP 9, IST medium): R
NCCLS Category ([10]; AP 9, MH medium): R
NCCLS Category ([10]; AP 13, IST medium): S
NCCLS Category ([10]; AP 13, MH medium): S
NCCLS Category ([10]; ATCC 27853, IST medium): S
NCCLS Category ([10]; ATCC 27853, MH medium): S
NCCLS Category ([10]; CDC 2275, IST medium): S
NCCLS Category ([10]; CDC 2275, MH medium): S
MIC ([10]; 12 h, read-out: Equivalent MIC, AP 9, IST medium): 32 mg/L
MIC ([10]; 12 h, read-out: Equivalent MIC, AP 9, MH medium): 32 mg/L
MIC ([10]; 12 h, read-out: Equivalent MIC, AP 13, IST medium): 4 mg/L
MIC ([10]; 12 h, read-out: Equivalent MIC, AP 13, MH medium): 4 mg/L
MIC ([10]; 12 h, read-out: Equivalent MIC, CDC 2275, IST medium): 4 mg/L
MIC ([10]; 12 h, read-out: Equivalent MIC, CDC 2275, MH medium): 4 mg/L
MIC ([10]; ATCC27853, 12 h, read-out: Equivalent MIC, ATCC 27853, IST medium): 1 mg/L
MIC ([10]; ATCC27853, 12 h, read-out: Equivalent MIC, ATCC 27853, MH medium): 2 mg/L
NCCLS Category ([11]; CDC 2008, IST medium): S
NCCLS Category ([11]; CDC 2008, MH medium): S
NCCLS Category ([11]; CDC 2254, IST medium): S
NCCLS Category ([11]; CDC 2254, MH medium): S
MIC ([11]; CDC 2008, IST medium): < 0.06 mg/L
MIC ([11]; CDC 2008, MH medium): < 0.06 mg/L
MIC ([11]; CDC 2254, IST medium): 0.5 mg/L
MIC ([11]; CDC 2254, MH medium): 1 mg/L

EDRPPLFGQGTV
growth [6]: interesting results for other strains of Enterococci
